Test results as given in patent US10508085B2, “Compounds and methods for IDO and TDO modulation, and indications therefor” (Plexxikon Inc., priority 2016, dated 2019).
Where two headings read alike, the source gives them in different places.

Assays:
[1] = target: T1, human TDO (TDO-expressing HEK293 cells) (Homo sapiens, UniProt P48775); experiment: Cell based kynurenine assay, TDO-expressing HEK293 cell clones
T1 construct: expressed in transfected cells
In short: (§1)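 Supernatant kynurenine was measured after 24 h exposure of stably transfected HEK293 cells (human IDO1 or TDO, 2.5×10^4/well) to serially diluted compound. Percent inhibition used 0.2% DMSO cell wells as high and media-only wells as low controls; IC50 fitted by nonlinear regression.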

[2] = target: T2, Human Indoleamine 2,3-dioxygenase (IDO) (Homo sapiens, UniProt P14902); experiment: Human IDO enzymatic assay (kynurenine level); assay type: biochemical
T2 construct: His tag (N); made in house; host or cells: E. coli
In short: (§2)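 Reactions were stopped with TCA, converting N-formylkynurenine to kynurenine for quantitation, with IC50 by nonlinear regression. IDO: 6 nM enzyme, 10 μM L-Trp, 20 min RT. TDO: 1 nM enzyme, 350 μM L-Trp, 70 min RT, both in pH 6.5 buffer.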

[3] = target: T3, human IDO (IDO1-expressing HEK293 cells) (Homo sapiens, UniProt P14902); experiment: Cell based kynurenine assay, IDO1-expressing HEK293 cell clones
T3 construct: expressed in transfected cells
In short: as §1

[4] = target: T4, Human Tryptophan 2,3-dioxygenase (TDO) (Homo sapiens, UniProt P48775); experiment: Human TDO enzymatic assay (kynurenine level); assay type: biochemical
T4 construct: His tag (N); made in house; host or cells: E. coli
In short: as §2

[5] = TDO-expressing HEK293 cells, 24 hours, geometric mean, read-out: HEK293 TDO Kynurenine GMean IC50 (μM) (Cellular Assay)
[6] = 6 nM IDO, 10 μM L-Trp, geometric mean, read-out: IDO1 GMean: IC50 (μM) (Biochemical Assay)
[7] = IDO1-expressing HEK293 cells, 24 hours, geometric mean, read-out: HEK293 IDO1 Kynurenine GMean IC50 (μM) (Cellular Assay)
[8] = 1 nM TDO, 350 μM L-Trp, geometric mean, read-out: TDO GMean: IC50 (μM) (Biochemical Assay)
[9] = cellular assay, HEK293, 24 hours, comparative examples, read-out: hTDO
[10] = biochemical assay, comparative examples, 4,6 versus 5,7 indazole, read-out: IDO1
[11] = cellular assay, HEK293, 24 hours, comparative examples, read-out: hIDO1
[12] = biochemical assay, comparative examples, 4,6 versus 5,7 indazole, read-out: TDO

T2 sequence (P14902 whole entry): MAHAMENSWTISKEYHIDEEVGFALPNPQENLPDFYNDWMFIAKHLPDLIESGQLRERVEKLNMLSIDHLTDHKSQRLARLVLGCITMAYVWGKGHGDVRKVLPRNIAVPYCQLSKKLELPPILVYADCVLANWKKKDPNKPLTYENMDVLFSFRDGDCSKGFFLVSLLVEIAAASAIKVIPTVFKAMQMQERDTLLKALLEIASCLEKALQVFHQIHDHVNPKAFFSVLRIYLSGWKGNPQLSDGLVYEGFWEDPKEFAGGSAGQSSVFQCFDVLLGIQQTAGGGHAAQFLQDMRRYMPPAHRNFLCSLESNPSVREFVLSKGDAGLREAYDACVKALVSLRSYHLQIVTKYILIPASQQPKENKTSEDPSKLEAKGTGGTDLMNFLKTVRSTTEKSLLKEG
T3 sequence (P14902 whole entry): as above
T1 sequence (P48775 whole entry): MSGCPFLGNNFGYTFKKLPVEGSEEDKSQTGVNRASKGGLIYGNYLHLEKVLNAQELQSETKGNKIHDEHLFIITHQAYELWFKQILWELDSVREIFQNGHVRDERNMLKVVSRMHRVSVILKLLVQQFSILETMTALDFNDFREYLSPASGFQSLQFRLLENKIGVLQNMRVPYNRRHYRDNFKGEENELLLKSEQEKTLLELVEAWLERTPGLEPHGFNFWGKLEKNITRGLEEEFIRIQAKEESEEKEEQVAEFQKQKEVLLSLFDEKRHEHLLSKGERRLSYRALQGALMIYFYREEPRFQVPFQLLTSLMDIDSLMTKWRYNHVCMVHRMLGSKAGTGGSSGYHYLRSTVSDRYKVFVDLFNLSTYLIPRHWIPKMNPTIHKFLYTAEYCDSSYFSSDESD
T4 sequence (P48775 whole entry): as above

| SMILES | IC50 [1, 5] [µM] | IC50 [2, 6] [µM] | IC50 [3, 7] [µM] | IC50 [4, 8] [µM] | IC50 [1, 9] [µM] | IC50 [2, 10] [µM] | IC50 [3, 11] [µM] | IC50 [4, 12] [µM] |
| --- | --- | --- | --- | --- | --- | --- | --- | --- |
| OC(c1cc(Cl)cc2cn[nH]c12)C1CCCCC1 (centres unmarked) [drawing 810] | – | – | – | – | 1.2 | 0.05 | 0.23 | 0.17 |
| COC12CCC(C(O)c3cc(Cl)cc4cn[nH]c34)(CC1)CC2 (centres unmarked) [drawing 812] | – | – | – | – | 2.63 | 0.11 | 0.08 | 1.18 |
| CC(C)(C1CCN(S(C)(=O)=O)CC1)C(O)c1cc(Cl)cc2cn[nH]c12 (centres unmarked) [drawing 814] | – | – | – | – | 0.42 | 0.03 | 0.08 | 0.15 |
| CC(C)(C1CCOCC1)C(O)c1cc(Cl)cc2cn[nH]c12 (centres unmarked) [drawing 816] | – | – | – | – | 2.63 | 0.11 | 0.08 | 1.18 |
| CC(C)(C1CCOCC1)C(O)c1cc(Cl)cc2[nH]ncc12 (centres unmarked) [drawing 817] | – | – | – | – | 0.01 | 0.95 | 6.94 | 0.08 |
| OC1(c2cc(Cl)cc3cn[nH]c23)CC2(CCOCC2)C1 [drawing 820] | – | – | – | – | 2.41 | 0.16 | 0.4 | 0.22 |

Continued, values first:

| IC50 [1, 5] [µM] | IC50 [2, 6] [µM] | IC50 [3, 7] [µM] | IC50 [4, 8] [µM] | IC50 [1, 9] [µM] | IC50 [2, 10] [µM] | IC50 [3, 11] [µM] | IC50 [4, 12] [µM] | SMILES |
| --- | --- | --- | --- | --- | --- | --- | --- | --- |
| 0.0001 to 10 | 0.0001 to 10 | 0.0001 to 10 | 0.0001 to 10 | – | – | – | – | CC(C)(C1CCN(C(=O)NC[C@@H]2CCCO2)CC1)[C@H](O)c1cc(Cl)cc2cn[nH]c12 [Compound P-0566, 4-((S)-1-(5-chloro-1H-indazol-7-yl)-1-hydroxy-2-methylpropan-2-yl)-N-(((S)-tetrahydrofuran-2-yl)methyl)piperidine-1-carboxamide] |
| 0.0001 to 10 | 0.0001 to 10 | 0.0001 to 10 | 0.0001 to 10 | – | – | – | – | CCCNC(=O)N1CCC(C(C)(C)[C@H](O)c2cc(Cl)cc3cn[nH]c23)CC1 [Compound P-0567, (S)-4-(1-(5-chloro-1H-indazol-7-yl)-1-hydroxy-2-methylpropan-2-yl)-N-propylpiperidine-1-carboxamide] |
| 0.0001 to 10 | 0.0001 to 10 | 0.0001 to 10 | 0.0001 to 10 | – | – | – | – | C#CCNC(=O)N1CCC(C(C)(C)[C@H](O)c2cc(Cl)cc3cn[nH]c23)CC1 [Compound P-0568, (S)-4-(1-(5-chloro-1H-indazol-7-yl)-1-hydroxy-2-methylpropan-2-yl)-N-(prop-2-yn-1-yl)piperidine-1-carboxamide] |
| 0.0001 to 10 | 0.0001 to 10 | 0.0001 to 10 | 0.0001 to 10 | – | – | – | – | CC(C)(C1CCN(C(=O)Nc2cccc(C#N)c2)CC1)[C@H](O)c1cc(Cl)cc2cn[nH]c12 [Compound P-0569, (S)-4-(1-(5-chloro-1H-indazol-7-yl)-1-hydroxy-2-methylpropan-2-yl)-N-(3-cyanophenyl) piperidine-1-carboxamide] |
| 0.0001 to 10 | 0.0001 to 10 | 0.0001 to 10 | 0.0001 to 10 | – | – | – | – | CC(C)(C1CCN(C(=O)Nc2ccc(C#N)nc2)CC1)C(O)c1cc(Cl)cc2cn[nH]c12 (centres unmarked) [Compound P-0570, 4-(1-(5-chloro-1H-indazol-7-yl)-1-hydroxy-2-methylpropan-2-yl)-N-(6-cyanopyridin-3-yl)piperidine-1-carboxamide] |
